US20100120715A1, “BETA-LACTAMASE INHIBITORS” (priority 2007, published 2010)
Like-named read-outs stand apart in the source and are kept apart here.

What was measured:
[1] = test system: K. pneumoniae expressing the Class A carbapenemase KPC-2; assay: microbe, parasite or virus in culture; details: in the presence of fixed 8 μg/mL Ceftazidime
Class C P99 AmpC = target: T1, Class C P99 AmpC (Enterobacter cloacae, UniProt P05364); assay type: biochemical; details: purified enzyme; nitrocefin 100 μM, PBS pH 7.0; read-out: P99 AmpC IC50 Range
T1 construct: made in house; host or cells: E. coli BL21(DE3)
T1 sequence (P05364 21-381): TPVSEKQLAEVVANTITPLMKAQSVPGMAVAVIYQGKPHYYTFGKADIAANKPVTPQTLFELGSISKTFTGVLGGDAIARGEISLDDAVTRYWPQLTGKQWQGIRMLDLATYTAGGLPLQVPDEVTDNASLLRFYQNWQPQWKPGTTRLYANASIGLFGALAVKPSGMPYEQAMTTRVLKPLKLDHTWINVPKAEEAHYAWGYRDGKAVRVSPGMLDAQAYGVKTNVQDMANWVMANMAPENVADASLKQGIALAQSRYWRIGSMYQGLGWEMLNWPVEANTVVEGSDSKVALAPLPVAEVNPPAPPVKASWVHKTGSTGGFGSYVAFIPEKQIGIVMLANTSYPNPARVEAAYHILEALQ
Summary of the method: (§1)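 Native untagged enzymes were expressed in E. coli BL21(DE3) and purified by cation exchange and gel filtration. Compound series (100–0.005 μM in PBS pH 7.0, before addition of an equal enzyme volume) were preincubated with enzyme 10 min at 37°C. Nitrocefin (100 μM final) hydrolysis was read kinetically at 486 nm for 10 min, and IC50 was taken as 50% reduction of initial rate versus no-inhibitor wells.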

[2] = test system: E. coli expressing the Class A ESBL SHV-5; assay: microbe, parasite or virus in culture; assay type: cell-based; details: in the presence of fixed 8 μg/mL Ceftazidime
Excerpt: (§2) To determine the ability of test compounds to potentiate the inhibition of the growth of bacterial strains producing beta-lactamase enzymes, classic cell based screening assays were employed. Four bacteria strains producing beta-lactamase enzymes were used: K. pneumoniae expressing the Class A Extended Spectrum Beta-Lactamase (ESBL) CTX-M-15, E. coli expressing the Class A ESBL SHV-5, E. cloacae expressing the Class C P99+, and K. pneumoniae expressing the Class A carbapenemase KPC-2. In order to evaluate the ability of test compounds to inhibit beta-lactamase activity, Applicants used a modification of the broth microdilution assay. The assay was conducted in Cation Adjusted Mueller Hinton Broth (CAMHB, BD # 212322, BD Diagnostic Systems, Sparks, Md.). Bacteria strains were grown for 3-5 hours in CAMBH broth. All four strains were grown in presence of 50 μg/mL ampicillin to ensure resistance is maintained. In the meantime, test compounds were diluted in DMSO to a 0.1 mg/mL stock. The compounds were added to a microtiter plate and were diluted in 2-fold serial dilutions in CAMHB in a final concentration range of 8 μg/mL to 0.015 μg/ml. An overlay of CAMHB containing a cephalosporin was added to the compounds at a final static concentration of 8 μg/ml. […] Each of these compound plates are made in quadruplicate, one for each bacteria strain. In addition to the titration of test compounds the MICs of a panel of cephalosporins is also tested to ensure the strains are behaving consistently from test to test. Once the test compound and cephalosporin are added the plates can be inoculated. Inocula are conducted according to CLSI broth microdilution method. After inoculation the plates are incubated for 16-20 hours at 37° C. then the Minimal Inhibitory Concentration (MIC) of the test compound is determined visually.

[3] = test system: K. pneumoniae expressing the Class A ESBL CTX-M-15; assay: microbe, parasite or virus in culture; assay type: cell-based; details: in the presence of fixed 8 μg/mL Ceftazidime
Class A ESBL SHV-5 = target: T2, Class A ESBL SHV-5 (Klebsiella pneumoniae, UniProt P0A3M1); assay type: biochemical, E. coli; details: nitrocefin 100 μM, PBS pH 7.0, read-out: SHV-5 IC50 Range
T2 construct: made in house; host or cells: E. coli BL21(DE3) for purified enzyme; E. coli cells containing SHV-5 for extracts
T2 sequence (P0A3M1 22-286): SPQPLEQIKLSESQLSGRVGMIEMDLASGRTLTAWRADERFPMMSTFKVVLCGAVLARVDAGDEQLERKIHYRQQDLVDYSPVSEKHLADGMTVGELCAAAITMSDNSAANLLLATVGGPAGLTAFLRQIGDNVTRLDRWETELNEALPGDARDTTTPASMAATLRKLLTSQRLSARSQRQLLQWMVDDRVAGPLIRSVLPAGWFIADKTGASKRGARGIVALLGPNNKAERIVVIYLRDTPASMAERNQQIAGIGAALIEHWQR

[4] = target: T3, Class A carbapenemase KPC-2 (Klebsiella pneumoniae, UniProt Q9F663); assay: β-lactamase enzyme inhibition (nitrocefin hydrolysis), KPC-2; assay type: biochemical; details: purified enzyme; nitrocefin 100 μM, PBS pH 7.0; read-out: KPC-2 IC50 Range
T3 construct: made in house; host or cells: E. coli BL21(DE3)
T3 sequence (Q9F663 25-293 limits assumed): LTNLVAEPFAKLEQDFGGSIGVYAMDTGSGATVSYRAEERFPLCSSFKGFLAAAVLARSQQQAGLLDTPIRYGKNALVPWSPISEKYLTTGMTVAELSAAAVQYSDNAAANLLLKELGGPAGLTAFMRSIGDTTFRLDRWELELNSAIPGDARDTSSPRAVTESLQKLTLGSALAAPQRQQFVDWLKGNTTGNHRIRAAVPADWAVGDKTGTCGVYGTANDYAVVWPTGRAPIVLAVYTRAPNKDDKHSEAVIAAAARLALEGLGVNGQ
Summary of the method: as §1

Class A ESBL CTXM-15 = target: T4, Class A ESBL CTXM-15 (Escherichia coli, UniProt Q9EXV5); assay: β-lactamase enzyme inhibition (nitrocefin hydrolysis), CTXM-15; assay type: biochemical; details: purified enzyme; nitrocefin 100 μM, PBS pH 7.0; read-out: CTXM-15 IC50 Range
T4 construct: made in house; host or cells: E. coli BL21(DE3)
T4 sequence (Q9EXV5 entry or part of it): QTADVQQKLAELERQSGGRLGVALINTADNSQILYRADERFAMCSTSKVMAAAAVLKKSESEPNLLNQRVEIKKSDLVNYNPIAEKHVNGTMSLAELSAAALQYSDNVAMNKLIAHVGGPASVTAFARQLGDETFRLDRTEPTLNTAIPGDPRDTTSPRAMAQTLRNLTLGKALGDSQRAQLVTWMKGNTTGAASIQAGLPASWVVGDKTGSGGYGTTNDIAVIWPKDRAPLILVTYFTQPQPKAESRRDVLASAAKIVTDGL
Summary of the method: as §1

[5] = test system: E. cloacae expressing the Class C P99+ AmpC; assay: microbe, parasite or virus in culture; assay type: cell-based; details: in the presence of fixed 8 μg/mL Ceftazidime
Excerpt: as §2

[6] = cellular extracts of E. coli containing SHV-5 (Examples 2-30)
[7] = purified beta-lactamase enzyme (Examples 1 and 31-64)

SMILES	MIC of example compound, K. pneumoniae KPC-2 + 8 μg/mL CAZ [1]	IC50 (Class C P99 AmpC) [nM]	MIC of example compound, E. coli SHV-5 + 8 μg/mL CAZ [2]	MIC of example compound, K. pneumoniae CTX-M-15 + 8 μg/mL CAZ [3]	IC50 (Class A ESBL SHV-5; [6]) [nM]	IC50 [4] [nM]	IC50 (Class A ESBL CTXM-15) [nM]	IC50 (Class A ESBL SHV-5; [7]) [nM]	MIC of example compound, E. cloacae P99 AmpC + 8 μg/mL CAZ [5]
O=C(Cc1cc(Br)cs1)N[C@@H](Cc1cccc(C(=O)O)c1O)B(O)O [Example 9, (1R)-1-(2-(4-bromo-thiophen-2-nyl)acetylamino)-2-(2-hydroxy-3-carboxyphenyl)ethyl-1-boronic acid]	C (C represents an MIC of <1 μg/mL)	< 10	C (C represents an MIC of <1 μg/mL)	C (C represents an MIC of <1 μg/mL)	< 10	10 to 100	< 10		
O=C(Cc1cccs1)N[C@@H](Cc1cccc(C(=O)O)c1O)B(O)O [Example 1, (1R)-1-(2-thiophene-2-yl-acetylamino)-2-(2-hydroxy-3-carboxyphenyl)ethyl-1-boronic acid]	C (C represents an MIC of <1 μg/mL)	< 10	C (C represents an MIC of <1 μg/mL)	C (C represents an MIC of <1 μg/mL)		< 10	< 10	< 10	
O=C(O)COc1cccc(CC(=O)N[C@@H](Cc2cccc(C(=O)O)c2O)B(O)O)c1 [Example 7, (1R)-1-[3-(carboxymethoxy)-phenyl]acetylamino-(3-carboxy-2-hydroxy)benzyl-methylboronic acid]	C (C represents an MIC of <1 μg/mL)	< 10	C (C represents an MIC of <1 μg/mL)	C (C represents an MIC of <1 μg/mL)	< 10		< 10		
O=C(Cc1cccnc1)N[C@@H](Cc1cccc(C(=O)O)c1O)B(O)O.O=CO [Example 59, (1R)-1-(3-Pyridylacetylamino)-2-(2-hydroxy-3-carboxyphenyl)ethyl-1-boronic acid formate salt]	C (C represents an MIC of <1 μg/mL)	< 10	C (C represents an MIC of <1 μg/mL)	C (C represents an MIC of <1 μg/mL)		< 10	< 10	< 10	
COc1cccc(C(=O)N[C@@H](Cc2cccc(C(=O)O)c2O)B(O)O)c1 [Example 29, (1R)-1-(3-methoxybenzoylamino)-2-(2-hydroxy-3-carboxyphenyl)ethyl-1-boronic acid]	C (C represents an MIC of <1 μg/mL)	< 10	C (C represents an MIC of <1 μg/mL)	C (C represents an MIC of <1 μg/mL)	10 to 100	< 10	< 10		
NCc1cccc(C(=O)N[C@@H](Cc2cccc(C(=O)O)c2O)B(O)O)c1.O=CO [Example 42, (1R)-1-(3-aminomethyl)-benzoylamino-1-(3-carboxy-2-hydroxy)benzyl-methyl boronic acid formate]	C (C represents an MIC of <1 μg/mL)	< 10				10 to 100	< 10	100 to 1000	C (C represents an MIC of <1 μg/mL)
O=C(O)c1cccc(C[C@H](NC(=O)c2c(Cl)cccc2Cl)B(O)O)c1O [Example 43, (1R)-1-(2,6-Dichlorobenzoyl)-amino-1-(3-carboxy-2-hydroxy)benzyl-methylboronic acid]	A (A represents an MIC >8 μg/mL)	< 10	A (A represents an MIC >8 μg/mL)	A (A represents an MIC >8 μg/mL)		10 to 100	10 to 100	> 1000	
Cn1nc(-c2ccccc2)cc1C(=O)N[C@@H](Cc1cccc(C(=O)O)c1O)B(O)O [Example 44, (1R)-1-(1-methyl-3-phenyl-1H-pyrazole-5-carbonyl-amino)-2-(2-hydroxy-3-carboxyphenyl)ethyl-1-boronic acid]		< 10	A (A represents an MIC >8 μg/mL)	A (A represents an MIC >8 μg/mL)		10 to 100	< 10	< 10	
NCCC(=O)N[C@@H](Cc1cccc(C(=O)O)c1O)B(O)O.O=CO [Example 38, (1R)-1-(3-aminopropanoylamino)-2-(2-hydroxy-3-carboxyphenyl)ethyl-1-boronic acid formate salt]	C (C represents an MIC of <1 μg/mL)	100 to 1000	A (A represents an MIC >8 μg/mL)	A (A represents an MIC >8 μg/mL)		100 to 1000	100 to 1000	> 1000	
O=C(Cc1cccs1)N[C@@H](Cc1ccc(C(=O)O)cc1O)B(O)O [Example 2, (1R)-1-(2-thiophene-2-yl-acetylamino)-2-(2-hydroxy-4-carboxyphenyl)ethyl-1-boronic acid]		100 to 1000			10 to 100		100 to 1000		A (A represents an MIC >8 μg/mL)
O=C(CO)N[C@@H](Cc1cccc(C(=O)O)c1O)B(O)O [Example 19, (1R)-1-Hydroxyacetylamino-1-(3-carboxy-2-hydroxy)benzyl-methyl boronic acid]	C (C represents an MIC of <1 μg/mL)	100 to 1000	A (A represents an MIC >8 μg/mL)	C (C represents an MIC of <1 μg/mL)	100 to 1000	10 to 100	10 to 100		
O=C(O)c1cccc(C[C@H](NC(=O)[C@@H]2CCCN2)B(O)O)c1O.O=CO [Example 64, (1R),(2′S)-1-(pyrrolidine-2-carbonylamino)-2-(2-hydroxy-3-carboxyphenyl)ethyl-1-boronic acid formate]	C (C represents an MIC of <1 μg/mL)	10 to 100	A (A represents an MIC >8 μg/mL)	A (A represents an MIC >8 μg/mL)		100 to 1000	100 to 1000	> 1000	
Cc1nc(-c2cccc(C(=O)N[C@@H](Cc3cccc(C(=O)O)c3O)B(O)O)c2)no1 [Example 47, (1R)-1-[3-(5-methyl-[1,2,4]oxadiazol-3-yl)-benzoyl]-amino-1-(3-carboxy-2-hydroxy)benzyl-methylboronic acid]		< 10	A (A represents an MIC >8 μg/mL)	A (A represents an MIC >8 μg/mL)		< 10	< 10	10 to 100	
CCCCCC(=O)N[C@@H](Cc1cccc(C(=O)O)c1O)B(O)O [Example 21, (1R)-1-Hexanoylamino-(3-carboxy-2-hydroxy)benzyl-methylboronic acid]	C (C represents an MIC of <1 μg/mL)	< 10	C (C represents an MIC of <1 μg/mL)	C (C represents an MIC of <1 μg/mL)	< 10	< 10	< 10		
